In general, Cmax refers to the highest concentration seen after dosing.

“Also recorded” adds a separate entry of the source. Like-named read-outs stand apart in the source and are kept apart here.

The conditions of data set [1]: phase I study; cited from earlier work.
Data set [2] has as its system patients with NRAS-mutant melanoma. Description: Phase Ib dose escalation: DLTs in cycle 1, MTD/RP2D determination. It is filed as in vivo, human. Particulars: 28-day schedule.
For data set [3], the system named is advanced, previously untreated, unresectable, stage IIIC or IV NRAS-mutant melanoma. The conditions noted are these: cited from earlier work.
Data set [4] is described as follows: Plasma pharmacokinetics. Format: in vivo, human. The conditions noted are these: for Tmax: steady state; for Cmax: human, Cmax at steady state, geometric mean (geometric %CV).
For data set [5] the following is noted: phase I study, 3 weeks on/1 week off; cited from earlier work.
Where [6] appears, read: binimetinib 45 mg orally twice daily or dacarbazine 1,000 mg/m^2 intravenously every 3 weeks, 402 patients.
Setting [7] is: patients who received prior immunotherapy.
Where [8] appears, read: binimetinib 45 mg twice daily + ribociclib 200 mg once daily, 28-day schedule, 11 subjects.

On to `Cn1cnc2c(F)c(Nc3ccc(Br)cc3F)c(C(=O)NOCCO)cc21` [binimetinib], for which the “recommended phase II dose (RP2D), single agent” value in data set [1] is 45 mg twice daily. Also, the “RP2D (in the combination)” value in data set [2] (continuous dosing) came to 45 mg twice daily. In addition, in data set [3] (95% CI, 0.47–0.80, one-sided P < 0.001), the “PFS HR, binimetinib vs dacarbazine” value is 0.62. In data set [3] (95% CI, 0.75–1.33, one-sided P = 0.50), the “OS HR, binimetinib vs dacarbazine” value is recorded as 1.00. Also, the results for the “median PFS” value in data set [3] (setting [6]) and in data set [3] (setting [7]) were 2.8 months and 5.5 months, respectively. Further, in data set [4] (binimetinib 45 mg twice daily + ribociclib 200 mg once daily, 28-day schedule, 11 subjects, plasma), the “AUCtau at steady state, geometric mean (geometric %CV)” value is given as 2,250 (37.7%) hour*ng/mL. Further, the Tmax entry in data set [4] (setting [8]) is “about 1.00 hour postdose”.
`CN(C)C(=O)c1cc2cnc(Nc3ccc(N4CCNCC4)cn3)nc2n1C1CCCC1` [ribociclib]: the “recommended dose for expansion, single agent” value in data set [5] is given as 600 mg/day. In addition, the “RP2D (in the combination)” value in data set [2] (21 days on/7 days off) was found to be 200 mg once daily. For the same compound, the Tmax entry in data set [4] (setting [8]) is “about 2.25 hour postdose”. For the same compound, the “Dose proportionality of steady-state exposures” value in data set [4] (dose-escalation range of 200 to 600 mg once daily) is listed as “increased greater than dose proportionally; also recorded: greater than dose proportional”. Moreover, the maximum concentration (Cmax) came out at 1910 ng/mL in data set [4] (plasma, 600 mg ribociclib coadministered with binimetinib, 21-day cycle) and 220 ng/mL in data set [4] (plasma, binimetinib 45 mg twice daily + ribociclib 200 mg once daily, 28-day schedule, 11 subjects, plasma).
Turning to `CN(C)/N=N/c1[nH]cnc1C(N)=O` [dacarbazine], the “median PFS” value in data set [3] (setting [6]) is 1.5 months; in data set [3] (setting [7]), 1.6 months.

The values above are taken from article PMC9365377 (Clinical Cancer Research, 2022).
